Assay results from patent US8754115B2, “Fungicidal pyrazoles” (E I du Pont de Nemours and Company, priority 2010, dated 2014).
Marks after values point to notes of the source that are not given here.

Legend:
Format in all cases: in vivo
[1] = system: Blumeria graminis f. sp. tritici; assay: Test F: preventive spray on wheat seedlings, visual disease rating (wheat powdery mildew)
Summary of the method: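 Visual ratings (0–100% control relative to controls) taken 8 days after spore-dust inoculation at 20° C. Inoculation followed one day after a protective run-off spray of 200 ppm suspension, equal to 800 g/ha, or 40 ppm where flagged, made in acetone/water with 250 ppm surfactant.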

Septoria tritici = assay: Test D: preventive spray on wheat seedlings, visual disease rating (wheat leaf blotch)
Summary of the method: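 Protection was scored visually on a 0–100% disease-control scale versus controls, 19 days after plants were moved to 20 °C following 48 h of 24 °C saturated humidity. Spore inoculation with S. tritici took place one day after a preventive run-off spray, usually at 200 ppm (800 g/ha) and at 40 ppm where asterisked.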

[2] = system: Puccinia recondite f. sp. tritici; assay: Test E2: preventive spray on wheat seedlings, visual disease rating (wheat leaf rust)
Summary of the method: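 Wheat seedlings were inoculated with leaf rust spores one day after a run-off spray of compound at 200 ppm (asterisk: 40 ppm) in 50/50 acetone/water with 250 ppm Trem 014. Incubation: 24 h saturated humidity, 20 °C; then 7 days growth chamber, 20 °C. Disease control scored visually, 0–100% relative to controls.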

Septoria nodorum = assay: Test C: preventive spray on wheat seedlings, visual disease rating (Septoria glume blotch)
Excerpt: (§1) General protocol for preparing test suspensions for Tests A-F: the test compounds were first dissolved in acetone in an amount equal to 3% of the final volume and then suspended at the desired concentration (in ppm) in acetone and purified water (50/50 mix by volume) containing 250 ppm of the surfactant Trem® 014 (polyhydric alcohol esters). The resulting test suspensions were then used in Tests A-F. Spraying a 200 ppm test suspension to the point of run-off on the test plants was the equivalent of a rate of 800 g/ha. Unless otherwise indicated, the rating values indicate a 200 ppm test suspension was used. (An asterisk “*” next to the rating value indicates a 40 ppm test suspension was used.)
(§2) The test suspension was sprayed to the point of run-off on wheat seedlings. The following day the seedlings were inoculated with a spore suspension of Septoria nodorum (the causal agent of Septoria glume blotch) and incubated in a saturated atmosphere at 24° C. for 48 h, and then moved to a growth chamber at 20° C. for 6 days, after which time visual disease ratings were made.
(§3) Results for Tests A-F are given in Table A. In the Table, a rating of 100 indicates 100% disease control and a rating of 0 indicates no disease control (relative to the controls). A dash (-) indicates no test results. An asterisk “*” next to the rating value indicates a 40 ppm test suspension was used.

[3] = system: Puccinia recondite f. sp. tritici; assay: Test E1: curative spray on wheat seedlings after inoculation, visual disease rating (wheat leaf rust)
Excerpt: as §1
Wheat seedlings were inoculated with a spore suspension of Puccinia recondite f. sp. tritici (the causal agent of wheat leaf rust) and incubated in a saturated atmosphere at 20° C. for 24 h, and then moved to a growth chamber at 20° C. for 2 days. After 2 days, the test suspension was sprayed to the point of run-off on the wheat seedlings, and then the seedlings were moved back to the growth chamber at 20° C. for 6 days. Upon removal, visual disease ratings were made.
as §3

Botrytis cinerea = assay: Test A: preventive spray on tomato seedlings, visual disease rating (tomato Botrytis)
Summary of the method: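 Preventive test: Botrytis cinerea spores applied one day after run-off spraying at 200 ppm (≈800 g/ha), or 40 ppm where asterisked. Incubation 48 h at 20 °C in saturated air, then 3 days at 24 °C; disease scored visually from 0 (no control) to 100 (complete control) versus untreated.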

Alternaria solani = assay: Test B: preventive spray on tomato seedlings, visual disease rating (tomato early blight)
Excerpt: as §1
as §2, with “tomato” for “wheat”, “Alternaria solani” for “Septoria nodorum”, “tomato early blight)” for “Septoria glume blotch)”, “27°” for “24°”, “5” for “6”
as §3

[4] = no asterisk: standard test suspension, not 40 ppm
[5] = asterisk: 40 ppm test suspension
[6] = no asterisk: standard test suspension, not 40 ppm, 100 = 100% disease control, 0 = none

Row | Molecule | Test F rating (% disease control) [1, 4] [%] | Test D rating (% disease control) (Septoria tritici; [4]) [%] | Test E2 rating (% disease control) [2, 4] [%] | Test C rating (% disease control) (Septoria nodorum; [5]) | Test E1 rating (% disease control) [3, 5] | Test A rating (% disease control) (Botrytis cinerea; [6]) [%] | Test B rating (% disease control) (Alternaria solani; [5]) | Test C rating (% disease control) (Septoria nodorum; [4]) [%] | Test E1 rating (% disease control) [3, 4] [%] | Test B rating (% disease control) (Alternaria solani; [4]) [%] | Test F rating (% disease control) [1, 5] | Test D rating (% disease control) (Septoria tritici; [5]) | Test E2 rating (% disease control) [2, 5] | Test A rating (% disease control) (Botrytis cinerea; [5])
1 | Cc1nn(C)c(-c2c(F)cccc2F)c1C(O)c1ccc(F)cc1Cl (single isomer, unassigned) [compound 86] | 100 | 100 | 100 | 99* % | 99* % | 99 | 100* % |  |  |  |  |  |  | 
2 | Cc1nn(C)c(-c2ccc(F)cc2Cl)c1C(O)c1ccc(F)cc1Cl (stereo not drawn) [compound 18] | 100 | 100 | 100 |  |  | 100 |  | 0 | 100 | 83 |  |  |  | 
3 | Cc1nn(C)c(-c2c(F)cccc2F)c1C(=O)c1ccc(F)cc1F [compound 24] | 96 | 0 | 79 |  |  | 9 |  | 0 | 9 | 0 |  |  |  | 
4 | α-(2,4-difluorophenyl)-5-(2,6-difluorophenyl)-1,3-dimethyl-1H-pyrazole-4-methanol [Compound 14] | 97 | 100 | 98 |  |  | 98 |  | 0 | 75 | 0 |  |  |  | 
5 | Cc1nn(C)c(-c2ccc(F)cc2F)c1Nc1ccc(F)cc1Cl [compound 57] |  |  |  | 0* % | 0* % |  | 0* % |  |  |  | 97* % | 81* % | 18* % | 99* %
6 | Cc1nn(C)c(-c2c(F)cccc2Cl)c1C(=O)c1ccc(F)cc1F [compound 28] | 79 | 0 | 8 |  |  | 56 |  | 0 | 0 | 0 |  |  |  | 
7 | Cc1nn(C)c(-c2ccc(C#N)cc2F)c1Oc1ccc(F)cc1F [compound 26] | 64 |  | 79 |  |  | 100 |  | 0 | 0 | 0 |  |  |  | 
8 | Cc1nn(C)c(-c2c(F)cccc2Cl)c1C(C)(O)c1ccc(F)cc1F (stereo not drawn) [Compound 29] | 96 |  | 100 |  |  | 100 |  | 0 | 0 | 64 |  |  |  | 
9 | Cc1nn(C)c(-c2c(F)cccc2F)c1C(F)c1ccc(Cl)cc1Cl (stereo not drawn) [Compound 92] |  |  |  | 94* % | 74* % |  | 99* % |  |  |  | 100* % | 100* % | 99* % | 
10 | Cc1nn(C)c(-c2c(Cl)cccc2Cl)c1C(O)c1ccc(Cl)cc1 (stereo not drawn) [compound 77] | 89 | 99 | 79 |  |  |  |  | 0 | 0 | 93 |  |  |  | 
11 | Cc1nn(C)c(-c2c(Cl)cccc2Cl)c1C(O)c1c(F)cc(F)cc1F (stereo not drawn) [compound 70] | 99 | 100 | 100 |  |  |  |  | 60 | 94 | 99 |  |  |  | 
